Source text: The samples were made in the standard quantity of 50 g, sufficient to perform the solubilisation and stability tests. The concentration ranges of the investigated actives and the sample preparation methods were established after a critical reading of the technical data sheets of each raw material.

Row | Compound | individual solubilisation in the solubilising agent
1 | CCCCCCCCCCCCCCCC(=O)NCCO [PMEA, palmitoylethanolamide] | possible to obtain the individual solubilisation
2 | CCCCCCCCCCCCCCCC(=O)NC(C)C [isopalmide, N-isopropyl-palmitoyl amide] | possible to obtain the individual solubilisation
